The target of assay [1] is T1, recombinant human ACC1 (acetyl-CoA carboxylase 1) (Homo sapiens, UniProt Q13085).
T1 construct: NM_198834, amino acids 39—end; FLAG (C); made in house; host or cells: baculovirus-transfected insect cells (Hi5)
The assay is described as follows: Human ACC1 enzyme assay (HTRF ADP detection).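 Further: ADP by-product quantified by competitive HTRF immunoassay with europium cryptate anti-ADP antibody and d2-labelled ADP, read after 1 h binding at 22 °C, enzyme near 2.5 ng/µl.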 The assay is classed as biochemical. The following applies: 50 μM ATP, 20 μM acetyl-CoA, 15 min pre-incubation, 20 min at 22° C.; read-out: ACC 1 IC50. For orientation: TR-FRET usually uses a lanthanide donor and a delayed reading to cut background.
Experimental: The basic principle of the assay is the measurement of adenosine diphosphate (ADP), which is formed as a by-product, by means of an HTRF®-based competitive immunoassay (HTRF=Homogeneous Time Resolved Fluorescence).
(§1) The amount of complex of d2-labelled ADP and europium cryptate-labelled anti-ADP antibody was then determined by measuring the resonance energy transfer of europium cryptate to d2.

Assay [2] has as its target T2, ACC2 (acetyl-CoA carboxylase 2) (Homo sapiens, UniProt O00763).
T2 construct: catalogue no; 50201, amino acids 39—end, expressed in baculovirus-transfected Sf9 insect cells; His (C); purchased BPS Bioscience (San Diego, Calif.) 50201; host or cells: baculovirus-transfected Sf9 insect cells
The assay is described as follows: Human ACC2 enzyme assay (HTRF ADP detection). Type of assay: biochemical. The following applies: 20 μM acetyl-CoA, 15 min pre-incubation, 20 min at 22° C.; read-out: ACC 2 IC50.
Experimental: The inhibitory activity of the substances of this invention with regard to acetyl-CoA carboxylase 2 (ACC2) was measured using the ACC2 assay described in the paragraphs below. The basic principle of the assay is the measurement of adenosine diphosphate (ADP), which is formed as a by-product, by means of an HTRF®-based competitive immunoassay (HTRF=Homogeneous Time Resolved Fluorescence).
as §1

32 compounds from patent US20120129833A1, “CYCLIC KETOENOLS FOR THERAPY” (BAYER PHARMA AKTIENGESELLSCHAFT, priority 2010, published 2012) can be followed below.

T2 sequence (O00763 39-2458 limits assumed): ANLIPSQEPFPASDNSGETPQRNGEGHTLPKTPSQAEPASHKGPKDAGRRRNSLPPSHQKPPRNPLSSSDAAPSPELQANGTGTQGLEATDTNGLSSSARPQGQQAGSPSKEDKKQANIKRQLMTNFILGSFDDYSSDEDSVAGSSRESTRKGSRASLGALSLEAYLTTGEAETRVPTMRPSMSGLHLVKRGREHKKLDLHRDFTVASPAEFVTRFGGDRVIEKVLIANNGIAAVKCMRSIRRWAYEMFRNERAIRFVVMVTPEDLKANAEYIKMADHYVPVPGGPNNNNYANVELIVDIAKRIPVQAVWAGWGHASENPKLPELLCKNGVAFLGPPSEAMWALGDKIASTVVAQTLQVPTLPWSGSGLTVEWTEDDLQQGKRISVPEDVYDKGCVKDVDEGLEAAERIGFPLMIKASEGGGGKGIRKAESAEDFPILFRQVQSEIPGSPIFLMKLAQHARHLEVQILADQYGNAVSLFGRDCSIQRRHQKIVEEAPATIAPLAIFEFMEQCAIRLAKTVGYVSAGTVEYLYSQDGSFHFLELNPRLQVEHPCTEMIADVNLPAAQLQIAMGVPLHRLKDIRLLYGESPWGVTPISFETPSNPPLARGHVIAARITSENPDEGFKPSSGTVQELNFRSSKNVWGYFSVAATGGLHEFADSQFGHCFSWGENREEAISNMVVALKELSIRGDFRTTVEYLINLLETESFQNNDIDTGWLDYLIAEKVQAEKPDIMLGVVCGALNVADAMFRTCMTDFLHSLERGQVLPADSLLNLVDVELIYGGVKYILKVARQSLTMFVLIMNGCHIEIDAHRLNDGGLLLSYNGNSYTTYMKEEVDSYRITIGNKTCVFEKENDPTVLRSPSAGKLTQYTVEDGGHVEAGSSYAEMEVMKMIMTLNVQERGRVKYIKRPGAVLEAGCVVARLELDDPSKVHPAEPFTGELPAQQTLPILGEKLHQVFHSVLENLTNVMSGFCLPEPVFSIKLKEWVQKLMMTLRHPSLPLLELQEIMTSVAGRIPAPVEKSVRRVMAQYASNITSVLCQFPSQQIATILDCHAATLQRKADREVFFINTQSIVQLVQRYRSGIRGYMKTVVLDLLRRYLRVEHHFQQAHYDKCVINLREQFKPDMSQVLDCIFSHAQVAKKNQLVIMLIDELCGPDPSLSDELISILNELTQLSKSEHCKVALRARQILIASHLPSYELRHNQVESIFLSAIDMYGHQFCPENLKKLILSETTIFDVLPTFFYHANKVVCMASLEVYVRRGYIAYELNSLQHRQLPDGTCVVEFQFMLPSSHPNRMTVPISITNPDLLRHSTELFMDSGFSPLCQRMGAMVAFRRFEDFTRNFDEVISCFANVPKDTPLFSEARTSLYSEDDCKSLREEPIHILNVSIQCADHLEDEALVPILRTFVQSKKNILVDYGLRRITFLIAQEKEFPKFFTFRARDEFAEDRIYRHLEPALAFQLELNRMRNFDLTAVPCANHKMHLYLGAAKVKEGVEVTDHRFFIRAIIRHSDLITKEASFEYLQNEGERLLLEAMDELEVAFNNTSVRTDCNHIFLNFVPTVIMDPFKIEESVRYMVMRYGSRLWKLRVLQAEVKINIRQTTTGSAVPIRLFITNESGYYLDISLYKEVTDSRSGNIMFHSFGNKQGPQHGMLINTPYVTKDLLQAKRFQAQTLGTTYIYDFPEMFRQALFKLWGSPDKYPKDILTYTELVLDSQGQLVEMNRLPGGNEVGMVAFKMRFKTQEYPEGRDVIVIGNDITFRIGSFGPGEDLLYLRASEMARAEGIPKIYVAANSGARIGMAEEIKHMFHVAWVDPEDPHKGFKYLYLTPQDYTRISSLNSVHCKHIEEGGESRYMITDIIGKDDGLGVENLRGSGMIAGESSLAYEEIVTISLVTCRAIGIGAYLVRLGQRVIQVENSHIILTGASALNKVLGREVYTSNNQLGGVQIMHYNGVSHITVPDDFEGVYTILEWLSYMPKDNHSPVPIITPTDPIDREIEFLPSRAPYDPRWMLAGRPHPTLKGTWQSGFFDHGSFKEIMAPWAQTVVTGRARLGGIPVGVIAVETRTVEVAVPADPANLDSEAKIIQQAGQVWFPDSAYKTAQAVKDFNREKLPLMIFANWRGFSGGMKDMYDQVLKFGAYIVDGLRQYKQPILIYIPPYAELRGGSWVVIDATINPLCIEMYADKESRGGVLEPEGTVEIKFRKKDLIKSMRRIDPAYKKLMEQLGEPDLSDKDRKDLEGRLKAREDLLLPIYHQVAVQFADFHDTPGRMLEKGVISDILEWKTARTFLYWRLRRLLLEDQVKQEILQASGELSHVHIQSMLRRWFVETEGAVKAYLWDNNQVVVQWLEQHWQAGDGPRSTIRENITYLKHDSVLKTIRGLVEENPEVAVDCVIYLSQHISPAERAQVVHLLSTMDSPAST

What is called IC50 is the concentration that gives 50% inhibition. In the case of `Cc1ccc(-c2ccc(Cl)cc2)cc1C1=C(O)[C@@]2(CC[C@H](OCC(C)C)C2)NC1=O` (relative stereo) [Example 1-49, rel-(5R,7R)-3-(4′-chloro-4-methylbiphenyl-3-yl)-4-hydroxy-7-(2-methylpropoxy)-1-azaspiro[4.4]non-3-en-2-one], the half-inhibitory concentration (IC50) turned out to be 240 nM in assay [1] and 9.9 µM in assay [2].
The matching figures for `CCOCCO[C@@H]1CC[C@@]2(C1)NC(=O)C(c1cc(-c3ccc(Cl)cc3)ccc1C)=C2O` (relative stereo) [Example 1-50, rel-(5R,7S)-3-(4′-chloro-4-methylbiphenyl-3-yl)-7-(2-ethoxyethoxy)-4-hydroxy-1-azaspiro[4.4]non-3-en-2-one]: 472 nM and 6.27 µM.
The matching figures for `COCCO[C@@H]1CCC[C@]2(C1)NC(=O)C(c1cc(-c3ccc(Cl)cc3)ccc1Cl)=C2O` (relative stereo) [Example 1-74, rel-(5R,7R)-3-(4,4′-dichlorobiphenyl-3-yl)-4-hydroxy-7-(2-methoxyethoxy)-1-azaspiro[4.5]dec-3-en-2-one]: 656 nM and 16.4 µM.
The matching figures for `Cc1ccc(-c2ccc(Cl)cc2)c(C)c1C1=C(O)C2(CCOCC2)NC1=O` [Example 1-1, 3-(4′-chloro-2,4-dimethylbiphenyl-3-yl)-4-hydroxy-8-oxa-1-azaspiro[4.5]dec-3-en-2-one]: 460 nM and 8.8 µM.
Take `CO[C@H]1CC[C@]2(CC1)NC(=O)C(c1cc(-c3ccc(Cl)cc3)ccc1C)=C2O` [Example 1-2, (5s,8s)-3-(4′-chloro-4-methylbiphenyl-3-yl)-4-hydroxy-8-methoxy-1-azaspiro[4.5]dec-3-en-2-one]: the figures for the 50% inhibitory concentration (IC50) in assay [1] and in assay [2] were […] and 0.37 µM, respectively.
The matching figures for `Cc1ccc(-c2ccc(Cl)cc2)cc1C1=C(O)C2(CCOC(C)C2)NC1=O` (stereo not drawn) [Example 1-3, 3-(4′-chloro-4-methylbiphenyl-3-yl)-4-hydroxy-7-methyl-8-oxa-1-azaspiro[4.5]dec-3-en-2-one]: 450 nM and 5.4 µM.
In the case of `Cc1ccc(-c2ccc(Cl)cc2)c(C)c1C1=C(O)C2(CCC(C)CC2)NC1=O` (stereo not drawn) [Example 1-4, 3-(4′-chloro-2,4-dimethylbiphenyl-3-yl)-4-hydroxy-8-methyl-1-azaspiro[4.5]dec-3-en-2-one], the IC50 in assay [1] amounted to 460 nM; in assay [2], 0.33 µM.
The matching figures for `Cc1ccc(-c2ccc(Cl)cc2)cc1C1=C(O)C2(CCCOC2)NC1=O` (stereo not drawn) [Example 1-5, 3-(4′-chloro-4-methylbiphenyl-3-yl)-4-hydroxy-7-oxa-1-azaspiro[4.5]dec-3-en-2-one]: 287 nM and 8.24 µM.
On to `Cc1ccc(-c2ccc(Cl)cc2)cc1C1=C(O)C2(CCOCC2)NC1=O` [Example 1-6, 3-(4′-chloro-4-methylbiphenyl-3-yl)-4-hydroxy-8-oxa-1-azaspiro[4.5]dec-3-en-2-one], for which the IC50 turned out to be 300 nM in assay [1] and 5.2 µM in assay [2].
The matching figures for `COC1CCC2(CC1)NC(=O)C(c1cc(-c3ccc(Cl)cc3)c(C)cc1C)=C2O` (stereo not drawn) [Example 1-7, 3-(4′-chloro-4,6-dimethylbiphenyl-3-yl)-4-hydroxy-8-methoxy-1-azaspiro[4.5]dec-3-en-2-one]: 1700 nM and 0.087 µM.
For the compound `Cc1cc(C)c(-c2ccc(Cl)cc2)cc1C1=C(O)C2(CCCOC2)NC1=O` (stereo not drawn) [Example 1-8, 3-(4′-chloro-4,6-dimethylbiphenyl-3-yl)-4-hydroxy-7-oxa-1-azaspiro[4.5]dec-3-en-2-one], the 50% inhibitory concentration (IC50) in assay [1] came to 790 nM; in assay [2], 0.81 µM.
The matching figures for `COC1CCC2(CC1)NC(=O)C(c1c(C)cc(C)c(-c3ccc(Cl)cc3)c1C)=C2O` (stereo not drawn) [Example 1-9, 3-(4′-chloro-2,4,6-trimethylbiphenyl-3-yl)-4-hydroxy-8-methoxy-1-azaspiro[4.5]dec-3-en-2-one]: 16600 nM and 0.626 µM.
Turning to `Cc1ccc(-c2ccc(Cl)cc2)c(C)c1C1=C(O)C2(CCCOC2)NC1=O` (stereo not drawn) [Example 1-10, 3-(4′-chloro-2,4-dimethylbiphenyl-3-yl)-4-hydroxy-7-oxa-1-azaspiro[4.5]dec-3-en-2-one], the 50% inhibitory concentration (IC50) in assay [1] amounted to 550 nM; in assay [2], 6.4 µM.
Regarding `COC1CCC2(CC1)NC(=O)C(c1cc(-c3ccc(Cl)cc3)ccc1Cl)=C2O` (stereo not drawn) [Example 1-11, 3-(4,4′-dichlorobiphenyl-3-yl)-4-hydroxy-8-methoxy-1-azaspiro[4.5]dec-3-en-2-one], the results for the IC50 in assay [1] and in assay [2] were 240 nM and 1 µM, respectively.
The matching figures for `Cc1ccc(-c2ccc(C(F)(F)F)cc2)cc1C1=C(O)C2(CCCCC2)NC1=O` [Example 1-12, 4-hydroxy-3-[4-methyl-4′-(trifluoromethyl)biphenyl-3-yl]-1-azaspiro[4.5]dec-3-en-2-one]: 772 nM and 18.2 µM.
The matching figures for `Cc1ccc(-c2ccc(C)c(C3=C(O)C4(CCCCC4)NC3=O)c2)cc1` [Example 1-13, 3-(4,4′-dimethylbiphenyl-3-yl)-4-hydroxy-1-azaspiro[4.5]dec-3-en-2-one]: 353 nM and 18.9 µM.
Regarding `Cc1ccc(-c2ccc(C)c(C3=C(O)C4(CCCOC4)NC3=O)c2)cc1` (stereo not drawn) [Example 1-14, 3-(4,4′-dimethylbiphenyl-3-yl)-4-hydroxy-7-oxa-1-azaspiro[4.5]dec-3-en-2-one], the IC50 in assay [1] is 990 nM; in assay [2], more than 20 µM.
The matching figures for `Cc1ccc(-c2ccc(C)c(C3=C(O)C4(CCOCC4)NC3=O)c2)cc1` [Example 1-15, 3-(4,4′-dimethylbiphenyl-3-yl)-4-hydroxy-8-oxa-1-azaspiro[4.5]dec-3-en-2-one]: 742 nM and more than 20 µM.
Regarding `Cc1ccc(-c2ccc(Cl)cc2)cc1C1=C(O)CN(C)C1=O` [Example 1-16, 3-(4′-chloro-4-methylbiphenyl-3-yl)-4-hydroxy-1-methyl-1,5-dihydro-2H-pyrrol-2-one], the 50% inhibitory concentration (IC50) in assay [1] is 329 nM; in assay [2], more than 20 µM.
Regarding `Cc1ccc(-c2ccc(Cl)cc2)cc1C1=C(O)CN(C(C)C)C1=O` [Example 1-17, 3-(4′-chloro-4-methylbiphenyl-3-yl)-4-hydroxy-1-(propan-2-yl)-1,5-dihydro-2H-pyrrol-2-one], the IC50 in assay [1] was 334 nM; in assay [2], 4.02 µM.
Turning to `Cc1ccc(-c2ccc(Cl)cc2)cc1C1=C(O)CN(C2CC2)C1=O` [Example 1-18, 3-(4′-chloro-4-methylbiphenyl-3-yl)-1-cyclopropyl-4-hydroxy-1,5-dihydro-2H-pyrrol-2-one], the IC50 stood at 797 nM in assay [1] and 7.61 µM in assay [2].
The matching figures for `Cc1ccc(-c2ccc(Cl)cc2)cc1C1=C(O)C(C)N(C(C)C)C1=O` (stereo not drawn) [Example 1-19, 3-(4′-chloro-4-methylbiphenyl-3-yl)-4-hydroxy-5-methyl-1-(propan-2-yl)-1,5-dihydro-2H-pyrrol-2-one]: 874 nM and 6.96 µM.
The matching figures for `Cc1ccc(-c2ccc(Cl)cc2)cc1C1=C(O)C2(CCC(C)(C)CC2)NC1=O` [Example 1-20, 3-(4′-chloro-4-methylbiphenyl-3-yl)-4-hydroxy-8,8-dimethyl-1-azaspiro[4.5]dec-3-en-2-one]: 240 nM and 0.214 µM.
Turning to `Cc1ccc(-c2ccc(Cl)cc2)cc1C1=C(O)C2CSCCN2C1=O` (stereo not drawn) [Example 1-21, 7-(4′-chloro-4-methylbiphenyl-3-yl)-8-hydroxy-1,3,4,8a-tetrahydro-6H-pyrrolo[2,1-c][1,4]thiazin-6-one], the 50% inhibitory concentration (IC50) amounted to 533 nM in assay [1] and 15.1 µM in assay [2].
Turning to `Cc1ccc(-c2ccc(Cl)cc2)cc1C1=C(O)CN(C2CCCCC2)C1=O` [Example 1-22, 3-(4′-chloro-4-methylbiphenyl-3-yl)-1-cyclohexyl-4-hydroxy-1,5-dihydro-2H-pyrrol-2-one], the IC50 in assay [1] came out at 969 nM; in assay [2], 0.695 µM.
`Cc1ccc(-c2ccc(Cl)cc2)c(C)c1C1=C(O)C2(CCC3(CC2)OCC(C)O3)NC1=O` (stereo not drawn) [Example 1-62, 11-(4′-chloro-2,4-dimethylbiphenyl-3-yl)-12-hydroxy-2-methyl-1,4-dioxa-9-azadispiro[4.2.4.2]tetradec-11-en-10-one]: the IC50 in assay [1] stood at 690 nM.
With `COC1CCC2(CC1)NC(=O)C(c1cc(-c3ccc(Cl)c(Cl)c3)ccc1C)=C2O` (stereo not drawn) [Example 1-81, 3-(3′,4′-dichloro-4-methylbiphenyl-3-yl)-4-hydroxy-8-methoxy-1-azaspiro[4.5]dec-3-en-2-one], the concentration for half-maximal inhibition (IC50) in assay [2] worked out at 1.41 µM.
For the compound `Cc1ccc(-c2ccc(Cl)cc2)cc1C1=C(O)C2(CC2)NC1=O` [Example 1-84, 6-(4′-chloro-4-methylbiphenyl-3-yl)-7-hydroxy-4-azaspiro[2.4]hept-6-en-5-one], the IC50 in assay [1] stood at 455 nM.
With `CCCC1CCC2(CC1)OC(=O)C(c1cc(-c3ccc(Cl)cc3)ccc1C)=C2O` (stereo not drawn) [Example 2-36, 3-(4′-chloro-4-methylbiphenyl-3-yl)-4-hydroxy-8-propyl-1-oxaspiro[4.5]dec-3-en-2-one], the IC50 in assay [2] came out at 1.94 µM.
With `COC1CCC2(CC1)SC(=O)C(c1cc(-c3ccc(Cl)cc3)ccc1C)=C2O` (stereo not drawn) [Example 3-1, 3-(4′-chloro-4-methylbiphenyl-3-yl)-4-hydroxy-8-methoxy-1-thiaspiro[4.5]dec-3-en-2-one], the half-inhibitory concentration (IC50) in assay [1] is 853 nM.
As for `Cc1ccc(-c2ccc(Cl)c(Cl)c2)cc1-c1c(O)c2ccc(Cl)cc2[nH]c1=O` [Example 9-7, 7-chloro-3-(3′,4′-dichloro-4-methylbiphenyl-3-yl)-4-hydroxyquinolin-2(1H)-one], the 50% inhibitory concentration (IC50) in assay [2] is 8.29 µM.
As to `Cc1cc(C)c(-c2c(O)c3ccc(Cl)cc3[nH]c2=O)cc1-c1ccc(Cl)cc1` [Example 9-12, 7-chloro-3-(4′-chloro-4,6-dimethylbiphenyl-3-yl)-4-hydroxyquinolin-2(1H)-one], the IC50 in assay [1] was 580 nM.
